From article PMC8049054, “Systematic Assessment of Fragment Identification for Multitarget Drug Design” (Chemmedchem, 2021)

system: T1, soluble epoxide hydrolase (sEH); experiment: Differential scanning fluorimetry (DSF) screen on sEH; assay type: binding; conditions: 500 μM fragment, mean of duplicates
T1 construct: For the expression of sEH-H and sEH-Fl transformed E.coli BL21 (DE3) cells were grown in 5052; made in house; host or cells: E. coli BL21 (DE3)
Description: For the primary screen of this fragment library, we employed differential scanning fluorimetry (DSF, also known as thermal shift). DSF is generally applicable to a large panel of protein targets and provides a robust, low‐cost screening technology for fragment‐based approaches. ^[20] All five proteins of our interest are soluble and were recombinantly expressed in Escherichia coli. We performed an initial fragment screen on all five targets by DSF. The use of a uniform screening method for all targets ensured consistent data and provided the opportunity to identify false positive hits which interfered with the screening technology. The conditions of the DSF assay were optimized for the desired screening and validated with reference compounds (Table S1 in the Supporting Information). Compounds causing a positive thermal shift ΔT m≥1.0 °C were considered as active.
DSF measurement of the PDFL (single concentration of 500 μM, duplicates, 96‐well format) on the five proteins retrieved 19 fragment hits on sEH, 28 on LTA4H, 12 on 5‐LOX, 16 on RXRα, and 14 on FXR, respectively. Melting point distributions of the screening library for all five targets are depicted in Figure 2. Amongst the hits, three compounds (Table S2) gave a positive signal on all five proteins likely qualifying them as pan assay interference compounds (PAINS). ^[21] Fragments binding to multiple targets (Scheme 1) were identified for seven out of ten target combinations (Figure 2, Table 1). Among them, fragments 4, 6, 7, and 9 match previously identified privileged scaffolds for fatty acid mimetics. ^[14] […] Active ligands containing N‐phenylbenzamide 6 and the N‐phenylbenzylamine 7 have been described for four of the protein targets. Furthermore, indole, which has been characterized as a privileged heterocycle for fatty acid mimetics, ^[14] is present in fragments 5 and 10. Dual 5‐LOX/RXR ligand 1 was present in 5‐LOX inhibitors, while dual FXR/LTA4H modulator 3 is found among known FXR ligands. Fragments 2 (sEH/5‐LOX) and 8 (LTA4H/RXR) are novel scaffolds not appearing in known ligands of any of the five targets.
Figure S3: SDS page of the purified proteins (proteins RXRα and FXR after TEV cleavage) using a 14% polyacrylamide gel, which was stained with coomassi. Precision Plus Protein™ Unstained Protein Standard s (Bio-Rad Laboratories, Inc. ) was used […]
All experiments were performed as duplicates using MicroAmp fast 96 -well plates. Each plate contained 80 different compound wells and 16 DMSO control wells. First 0.8 µl of a 25 mM Preswick Library Fragment dilution in DMSO or pure DMSO were placed in each of the well (final concentration 500 µM). Then 39.2 µl of the master mi x (containing protein, Triton x -100, SYPRO® Orange Protein Gel Stain and buffer that corresponds to the tested protein) were added.
Table S4: Final concentrations in DSF experiments:
Protein Final concentrations under screening conditions […]
glycerol, 0.01% (W/V) Triton X-100, 2.05 % DMSO and 2.5x SYPRO® with a pH = 7 […]
The measurements were performed using a iCycler iQ™ Single -Color Real Time PCR device with a heat rate of 1 °C per min, an excitation wavelength of 490 nm and an emission wavelength of 570 nm. The first derivation calculated by MyiQ Op tical Software 1.0 was analyzed using Microsoft Office Excel 2013 by comparing the maxima. A shift of 1 °C (in case of 5 -LOX 0.9°C) or more compared to the DMSO control were assumed as potentially binding of the fragment.
(1 picture or pasted object on this page, not shown here)

Point of comparison: `Fc1ccc(-c2c[nH]c3ccccc23)cc1` [Compound 10], “DSF/ΔT m sEH” value 0.6±0.7 °C. Against it:
- Oc1ccc2cc[nH]c2c1 [Compound 5] — within error, 0.0±0.0 °C
- Cc1cc(=O)n(-c2ccc(C)c(C)c2)[nH]1 [Compound 2] — higher, 2.2±0.0 °C
- c1ccc(N2CCNCC2)nc1 [Compound 1] — within error, 0.0±0.0 °C
- Oc1ccc(-c2ccc(F)cc2F)cc1 [Compound 9] — within error, 1.0±0.0 °C
- Cc1ccccc1C(=O)Nc1ccccc1 [Compound 6] — higher, 2.0±0.0 °C
- CCCCOc1cc(C(=O)OC)ccc1N [Compound 3] — within error, 0.0±0.0 °C
- CCN(Cc1ccccc1)c1ccccc1 [Compound 7] — within error, 1.0±0.0 °C
- Oc1ccc(Cc2ccccc2)cc1 [Compound 4] — within error, 0.0±0.0 °C
